According to article PMC11483813, “Bombesin-Targeted Delivery of β-Carboline-Based Ir(III) and Ru(II) Photosensitizers for a Selective Photodynamic Therapy of Prostate Cancer” (Inorganic Chemistry, 2024):

Assays:
[1] = pKa determination from emission intensity versus pH; format: physicochemical; details: H2O:DMSO (99:1), 10^–5 M, 25 °C
Source text: Ir-H and Ru-H are susceptible to deprotonation in aqueous media due to the presence of the acidic −COOH group. In fact, the actual protonation state of these complexes at the different physiological pH values defines their global charge and correspondingly influences their solubility, their photophysical properties, and their cellular uptake.[45]−[47] Thus, the pKa values of Ir-H and Ru-H in their excited states were experimentally determined by monitoring the variations of their emission intensity at specific wavelengths versus different pH values and fitting the data (Iem,λ/pH) to a sigmoidal equation. In good agreement with similar complexes reported in the literature,[45],[46] there was a gradual decrease in the emission intensity of Ir-H and Ru-H with decreasing pH (Figures 4 and S50). […] These values can be considered as an acceptable approximation to the values of the respective ground states. Therefore, we concluded that Ir-H and Ru-H adopt their deprotonated zwitterionic forms in the whole range of physiological pHs. This means that Ir-H assumes a zwitterionic neutral form, while Ru-H adopts a zwitterionic monocationic structure. In both cases, there is charge separation, and as a result, we predict that the cellular uptake ability of these complexes could be reduced, in comparison to that of their relatives Ir-Me and Ru-Me.
Figure 4 pKa determination. […]

[2] = Self-aggregation study (Lambert-Beer law, UV-vis); format: physicochemical; details: H2O:DMSO (99:1), 1 to 40 μM, absorbance at 417 nm
Experimental: The possible aggregation properties (self-assembly behavior) were investigated for the lipophilic derivative Ir-Me through the respective analysis of the Lambert–Beer law using UV–vis spectroscopy in H2O:DMSO (99:1). More specifically, the absorbance of Ir-Me at λ = 417 nm was plotted versus concentration in the range between 1 and 40 μM. An excellent linear fitting was obtained confirming that there is no significant deviation from the Lambert–Beer law (Figures S57 and S58).

[3] = tested on: PC-3 cells; assay: Intracellular ROS generation (H2DCFDA, flow cytometry); format: cell-based, human; details: IC50,light 4 h, blue light 1 h
Experimental: The photocytotoxic effects of the complexes and metallopeptides were further elucidated by evaluating their ability to photogenerate ROS at the cellular level. PC-3 cells were treated with the compounds at the respective IC50,light and irradiated with blue light. Subsequently, ROS generation was measured using the 2′,7′-dichlorodihydrofluorescein diacetate (H2DCFDA) probe, which diffuses into cells and is oxidized by ROS to produce a green fluorescent signal. […] Nevertheless, to ascertain the potential contributions of other ROS to the photocytotoxic activity, the capacity of the compounds to undergo type I PDT processes, resulting in the production of superoxide anions (O2^•–), was examined using a specific fluorescent probe that emits an orange signal upon interaction with this radical. […]
Figure 9 Intracellular ROS generation. […] The elevation of general ROS (A) and superoxide anion (B) levels was determined with specific probes by flow cytometry. […]
PC-3 cells were seeded at a density of 100000 cells per well in 12-well plates and incubated overnight. […] Cells were subsequently harvested by trypsinization, and the median fluorescence emission of 10000 cells was measured using a Novocyte flow cytometer equipped with NovoExpress software. The fluorescence fold increase relative to untreated control cells was calculated. […]

Row | Structure (SMILES) | pKa (excited state) [1] | self-aggregation [2] | ROS levels, fold increase versus control cells [3] [fold]
1 | Cn1c2ccccc2c2ccnc(-c3ccc(/C=C/C(=O)O)cn3)c21.[Cl-].[Ir+3].[c-]1ccccc1-c1ccccn1.[c-]1ccccc1-c1ccccn1 [Ir-H] | 3.81 |  | 
2 | Cn1c2ccccc2c2ccnc(-c3ccc(/C=C/C(=O)O)cn3)c21.[Cl-].[Cl-].[Ru+2].c1ccc(-c2ccccn2)nc1.c1ccc(-c2ccccn2)nc1 [Ru-H] | 4.51 |  | 
3 | COC(=O)/C=C/c1ccc(-c2nccc3c4ccccc4n(C)c23)nc1.[Cl-].[Ir+3].[c-]1ccccc1-c1ccccn1.[c-]1ccccc1-c1ccccn1 [Ir-Me] |  | does not form aggregates | 4.5
